Reference: US20080118980A1, “Estrogen Enhancing Differentiation of Human Mesenchymal Stromal Cells and Adipose-derived Stromal Cells” (The Board of Trustees of the University of Illinois,, priority 2006, published 2008)

How the values were obtained:
Type in all cases: cell-based
[1] = tested on: human bone marrow mesenchymal stem cells (MSCs); assay: Proliferation of human bone marrow MSCs in basic medium with E2 or E3 (MTS, Example 3)
Method: This study investigates the mitogenic effects of estrogen receptor ligands on human bone marrow MSCs that is not contacted with osteogenic or adipogenic medium. Purified human bone marrow mesenchymal stem cells (MSCs) were purchased commercially. MSCs were respectively exposed to basic medium (DMEM+10% FBS+1% antibiotics), and basic medium supplement with 10^−6 and 10^−9 M 17-β estradiol (E2) and estriol (E3) for approximately one week. Then, various cells were plated into 96-well plates in 500 cells/well and continued to be exposed to the media. After 4 days, cell densities were measured by MTS methods and compared to initial densities. FIG. 8 illustrates the increase of the number of MSCs after being treated with basic medium and basic medium supplemented with E2 or E3.

rat bone MSCs = assay: Proliferation of rat bone MSCs with E2 modulation (MTS, Example 4); conditions: for cell proliferation (absorbance at 540 nm) vs control: 10^−9 and 10^−6 M E2, day 3, FIG. 9A; for E2 concentration of proliferation peak: day 3
Method: Three month-old, male and female Fisher 344 rats (Charles River Lab., Wilmington, Mass.) were purchased and euthanized by CO^2 inhalation. The tibias and femurs were dissected and bone marrow plugs were flushed out with a syringe (18-gauge needle), and filled with a basic medium consisting of DMEM, 10%FBS and 1% antibiotic-antimycotic. Cells were counted on a hemacytometer, plated at 5×10^7 cells/100-mm petri dish and incubated with basic DMEM medium at 37° C. in 5% CO2. The MSCs were isolated by removing unattached cells via medium exchange. The MSCs were incubated up to 80% confluence and then subcultured at a density of 10^6/100-mm dish. Prior to confluence, the MSCs were trypsinized, counted and used for measuring proliferation rate using E2 modulation.
In order to analyze the estrogen function on cell proliferation, 500 of passage-1 MSCs were placed into each well of 96-well plates and exposed to basic medium supplemented with different concentrations of E2 (10^−6M to 10^−9M) (Sigma, St. Louis, Mo.). On day 3, the cell proliferation with different estrogen modulations were quantified using a MTS calorimetric method according to manufacturer's manual (CellTiter 96® Queous One Solution Cell Proliferation Assay, Promega, Madison, Wis.)

[2] = tested on: rat bone MSC-based TE constructs; assay: Osteogenic differentiation of rat bone MSC-based TE constructs with E2 (Example 4); conditions: 14 days; for calcium deposition: FIG. 9C
Method: TE constructs were created by seeding passage-1 MSCs on gelatin sponges (Gelfoam@, Pharmacia & Upjohn, Kalamazoo, Mich.). The sponge were trimmed into 4×4×4 mm^3 and pre-wet with DMEM medium for 1 hr. The sponges were transferred to MSC suspension with a cell density of 2×10^6 cells/ml under a slight vacuum created by 20 ml syringe, followed by incubation in 5% CO2 at 37° C. for two hours. Beginning the next day as day-0, TE constructs were respectively exposed to the osteogenic differentiation medium supplemented with different concentrations of E2 (10^−6M to 10^−12M). The osteogenic differentiation medium consists of basic medium supplemented with 100 nM dexamethasone, 10 mM β-glycerophosphate, and 0.05 mM ascorbic acid-2-phosphate. After two weeks of differentiation, constructs of each experimental group were collected and quantitatively measured for osteogenic differentiation.
TE constructs were immersed in 0.2 ml of 1% Triton-X100 and homogenized with sonication. The DNA concentration of cell lysate was measured fluorometrically using Hoechst dye 33258 (Bio-Rad, Hercules, Calif.). The fluorescent optical density of each sample was measured using a fluorometer having an excitation wavelength of 360 nm and an emission wavelength of 460 nm. The amount of DNA in each sample was determined by using a prepared standard curve. ALP and calcium content were measured by spectrophotometry with a calorimetric kit according to the manufacturers' instructions (Sigma, St. Louis, Mo.).

C[C@]12CC[C@@H]3c4ccc(O)cc4CC[C@H]3[C@@H]1CC[C@@H]2O [E2, 17-β estradiol]
cell proliferation (MTS assay and cell counting) ([1]; 10^−6 and 10^−9 M, about one week then 4 days in 96-well plates, FIG. 8): greatly increased | differentiation capabilities (adipogenic and osteogenic) of modulated MSCs ([1]; vs controls): maintain their differentiation capabilities | cell proliferation (absorbance at 540 nm) vs control (rat bone MSCs; female MSCs): significantly higher | E2 concentration of proliferation peak (rat bone MSCs; female bone MSCs): 10^−6 M | cell proliferation (absorbance at 540 nm) vs control (rat bone MSCs; male MSCs): significantly higher | E2 concentration of proliferation peak (rat bone MSCs; male bone MSCs): 10^−9 M | peak concentration of E2 to increase ALP activity ([2]; both male and female MSCs): 10^−10 M | calcium deposition ([2]; female MSC-derived constructs): does not appear to have similar effects | calcium deposition ([2]; male MSC-derived constructs): may also improve | ALP activities of constructs ([2]; male and female constructs, dose-dependent, FIG. 9B): increased
